Experimental findings from ChEMBL document CHEMBL1145633, “Inhibitors of the tyrosine kinase EphB4. Part 1: Structure-based design and optimization of a series of 2,4-bis-anilinopyrimidines” (Bioorg Med Chem Lett, 2008) are described below.

This assay deals with T1, Ephrin type-B receptor 2 (Homo sapiens, UniProt P29323).
T1 sequence (P29323 whole entry): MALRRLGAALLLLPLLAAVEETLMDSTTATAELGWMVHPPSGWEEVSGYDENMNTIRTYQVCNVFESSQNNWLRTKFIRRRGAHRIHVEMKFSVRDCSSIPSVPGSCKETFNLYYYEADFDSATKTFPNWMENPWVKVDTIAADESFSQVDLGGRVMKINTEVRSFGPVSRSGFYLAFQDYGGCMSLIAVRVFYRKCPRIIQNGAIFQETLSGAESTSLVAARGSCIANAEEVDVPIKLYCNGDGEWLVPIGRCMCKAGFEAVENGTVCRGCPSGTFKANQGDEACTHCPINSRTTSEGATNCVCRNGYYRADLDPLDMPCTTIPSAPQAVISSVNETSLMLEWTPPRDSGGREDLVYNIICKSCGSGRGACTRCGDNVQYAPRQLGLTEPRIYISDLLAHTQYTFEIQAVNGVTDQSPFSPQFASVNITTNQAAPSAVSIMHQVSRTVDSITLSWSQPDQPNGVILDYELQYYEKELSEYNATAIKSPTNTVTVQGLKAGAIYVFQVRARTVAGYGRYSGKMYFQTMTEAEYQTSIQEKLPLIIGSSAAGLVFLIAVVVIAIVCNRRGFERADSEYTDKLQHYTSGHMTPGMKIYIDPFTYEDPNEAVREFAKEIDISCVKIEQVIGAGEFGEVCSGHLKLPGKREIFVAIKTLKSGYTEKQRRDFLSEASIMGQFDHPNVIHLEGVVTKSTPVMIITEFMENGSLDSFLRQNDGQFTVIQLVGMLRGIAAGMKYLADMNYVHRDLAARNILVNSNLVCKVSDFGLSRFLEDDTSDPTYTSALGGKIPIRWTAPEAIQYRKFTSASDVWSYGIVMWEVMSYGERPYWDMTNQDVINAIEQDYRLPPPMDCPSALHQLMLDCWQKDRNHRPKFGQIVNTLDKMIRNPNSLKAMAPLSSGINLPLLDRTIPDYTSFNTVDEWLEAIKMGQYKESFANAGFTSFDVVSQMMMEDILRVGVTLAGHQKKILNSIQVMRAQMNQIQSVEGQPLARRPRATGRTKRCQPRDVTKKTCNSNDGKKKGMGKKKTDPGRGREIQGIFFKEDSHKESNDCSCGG
In words: Inhibition of EphB2.

Take `CS(=O)(=O)c1cccc(Nc2nccc(Nc3c(Cl)ccc4c3OCO4)n2)c1`: half-maximal inhibition (IC50) was put at 50 nM.
